{"source": "paper PMC6194148", "about": "“Phenylindanes in Brewed Coffee Inhibit Amyloid-Beta and Tau Aggregation” (Frontiers in Neuroscience, 2018)", "type_in_all_cases": "biochemical", "key": {"tau (tau40)": {"target": "T1, tau (tau40) (Homo sapiens, UniProt P10636)", "T1 construct": "gene MAPT; Human tau40, tag-free, expressed in E. coli", "T1 sequence (P10636 2-441 isoform P10636-8)": "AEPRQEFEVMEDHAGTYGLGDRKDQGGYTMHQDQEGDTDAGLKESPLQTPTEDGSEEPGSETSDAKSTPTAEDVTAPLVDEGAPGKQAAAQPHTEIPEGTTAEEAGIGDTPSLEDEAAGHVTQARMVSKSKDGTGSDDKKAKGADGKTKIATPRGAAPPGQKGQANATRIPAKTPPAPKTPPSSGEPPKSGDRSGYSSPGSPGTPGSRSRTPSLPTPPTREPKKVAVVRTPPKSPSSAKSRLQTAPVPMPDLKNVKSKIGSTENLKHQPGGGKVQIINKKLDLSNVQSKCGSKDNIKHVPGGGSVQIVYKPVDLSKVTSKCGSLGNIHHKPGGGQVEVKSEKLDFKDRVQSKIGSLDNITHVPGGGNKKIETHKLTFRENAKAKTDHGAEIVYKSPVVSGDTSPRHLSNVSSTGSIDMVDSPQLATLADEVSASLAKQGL", "assay": "ThS fluorescence fibrillization assay (heparin-containing buffer); […] inhibition at […], […] at […]", "conditions": "read-out: Tau fibril inhibition (%)"}, "amyloid-beta (Aβ) [1]": {"target": "T2, amyloid-beta (Aβ) (Homo sapiens, UniProt P05067)", "assay": "Aβ oligomerization ELISA (biotinylated Aβ[…]-42); also ThT fibrillization, […] inhibition at […]", "parameters": "gene APP; biotinylated Aβ1-42 (oligomerization); Aβ1-40 (fibrillization)"}, "amyloid-beta (Aβ) [2]": {"target": "T2, amyloid-beta (Aβ)", "assay": "ThT fluorescence fibrillization assay at […]; no inhibition of Aβ oligomerization", "parameters": "gene APP; Aβ1-40", "conditions": "read-out: Aβ fibril inhibition (%)"}, "amyloid-beta (Aβ) [3]": {"target": "T2, amyloid-beta (Aβ)", "assay": "Aβ oligomerization ELISA (biotinylated Aβ[…]-42); also ThT fibrillization, […] inhibition at […]", "parameters": "gene APP; biotinylated Aβ1-42 (oligomerization); Aβ1-40 (fibrillization)", "remark": "listed apart in the source"}}, "note": "Read-outs that look alike come from different tables or passages of the source."}
{"smiles": "CC1CC(c2ccc(O)c(O)c2)c2cc(O)c(O)cc21", "note": "(mixture of isomers) [compound 6, Phenylindane]", "values": [{"measurement": "inhibition at 100 µM", "setting": "tau (tau40)", "value": "95.2 ± 1.7", "unit": "%"}, {"measurement": "IC50", "setting": "amyloid-beta (Aβ) [1]", "value": "42.1 ± 1.4", "unit": "µM"}]}
{"smiles": "O=C(/C=C/c1ccc(O)c(O)c1)O[C@@H]1C[C@](O)(C(=O)O)C[C@@H](O)[C@H]1O", "note": "[compound 2, Chlorogenic acid]", "values": [{"measurement": "inhibition at 100 µM", "setting": "amyloid-beta (Aβ) [2]", "value": "97.7 ± 0.7", "unit": "%"}]}
{"smiles": "O=C(O)/C=C/c1ccc(O)c(O)c1", "note": "[compound 4, Caffeic acid]", "values": [{"measurement": "inhibition at 100 µM", "setting": "amyloid-beta (Aβ) [2]", "value": "99.4 ± 0.9", "unit": "%"}]}
{"smiles": "O=c1c(O)c(-c2ccc(O)c(O)c2)oc2cc(O)cc(O)c12", "note": "[compound 5, Quercetin]", "values": [{"measurement": "IC50", "setting": "amyloid-beta (Aβ) [3]", "value": "10.3 ± 1.1", "unit": "µM"}]}
